Calls of active or inactive are those of the source. No cut-off for these calls is given here.
Tests used:
HUVEC [1] = test: Antiangiogenic activity against HUVEC assessed as inhibition of cell migration at 10 ug/ml after 24 hrs by wound healing assay relative to control; assay type: functional; conditions: Homo sapiens
SiHa = test: Cytotoxicity against human SiHa cells after 48 hrs by MTT assay; assay type: functional, cell-based
HeLa = test: Cytotoxicity against human HeLa cells after 48 hrs by MTT assay; assay type: functional, cell-based
CCRF S-180 [2] = test: Antitumor activity against mouse S180 cells allografted in ICR mouse assessed as tumor growth inhibition at 200 mg/kg, ig qd administered for 6 days relative to vehicle-treated control; assay type: functional; conditions: CCRF S-180, po, 144 h, route intragastric, read-out: TGI
HUVEC [3] = test: Cytotoxicity against HUVEC assessed as mitochondrial metabolism after 48 hrs by MTT assay; assay type: cell-based, Homo sapiens; conditions: for IC50: Homo sapiens, HUVEC; for Activity: human, huvec
A549 = test: Cytotoxicity against human A549 cells after 48 hrs by MTT assay; assay type: functional, cell-based; conditions: A549, 48 h
BeWo = test: Cytotoxicity against human Bewo cells after 48 hrs by MTT assay; assay type: functional, cell-based
Mus musculus = test: Toxicity in ICR mouse allografted with mouse S180 cells assessed as body weight loss at 200 mg/kg, ig qd administered for 6 days relative to vehicle-treated control; assay type: organism-based, CCRF S-180; set-up: dose 200 mg/kg, route intragastric; conditions: in vivo, po, 144 h
MCF7 = test: Cytotoxicity against human MCF7 cells after 48 hrs by MTT assay; assay type: functional, cell-based; conditions: MCF7, 48 h
HUVEC [4] = test: Antiangiogenic activity against HUVEC assessed as inhibition of cell migration at 2.5 ug/ml after 24 hrs by wound healing assay relative to control; assay type: functional; conditions: Homo sapiens
Ishikawa = test: Cytotoxicity against human Ishikawa cells after 48 hrs by MTT assay; assay type: functional, cell-based
HL-60 = test: Cytotoxicity against human HL60 cells after 48 hrs by MTT assay; assay type: functional, cell-based; conditions: HL-60, 48 h
[5] = Cytotoxicity against human JeKo1 cells after 48 hrs by MTT assay; assay type: functional, cell-based; conditions: JeKo-1, 48 h
[6] = Cytotoxicity against human SKBR3 cells after 48 hrs by MTT assay; assay type: functional, cell-based; conditions: SK-BR-3, 48 h
[7] = Cytotoxicity against human NCI-460 cells after 48 hrs by MTT assay; assay type: functional, cell-based; conditions: NCI-460, 48 h
[8] = Cytotoxicity against human BGC823 cells after 48 hrs by MTT assay; assay type: functional, cell-based; conditions: BGC-823, 48 h
[9] = Cytotoxicity against human Bel7402 cells after 48 hrs by MTT assay; assay type: functional, cell-based; conditions: Bel-7402, 48 h
CCRF S-180 [10] = test: Antitumor activity against mouse S180 cells allografted in ICR mouse assessed as tumor growth inhibition at 30 mg/kg, ig qd administered for 6 days relative to vehicle-treated control; assay type: functional; conditions: CCRF S-180, po, 144 h, route intragastric, read-out: TGI
HUVEC [11] = test: Antiangiogenic activity against HUVEC assessed as inhibition of tube formation at 12.5 ug/ml after 24 hrs relative to control; assay type: functional, cell-based; conditions: Homo sapiens

SMILES: Cc1ccc2c(=O)c3cccc(CC(=O)Nc4cccc(Cl)c4)c3oc2c1C
- inhibition at 10 µg/mL (HUVEC [1]): 58.2%
- IC50 (SiHa): 36.1 µM
- IC50 (HeLa): 25.4 µM
- inhibition in vivo at 200 mg/kg (CCRF S-180 [2]): 22.4%
- IC50 (HUVEC [3]): 11.1 µM
- Activity (HUVEC [3]): Dose-dependent effect
- IC50 (A549): 10.8 µM
- IC50 (BeWo): 66.5 µM
- Activity (Mus musculus): 10.7%
- IC50 (MCF7): > 100 µM
- inhibition at 2.5 µg/mL (HUVEC [4]): 32.6%
- IC50 (Ishikawa): > 100 µM
- IC50 (HL-60): 91.2 µM

SMILES: C/C=C/CC(=O)NNC(=O)Cc1cccc2c(=O)c3ccc(C)c(C)c3oc12
- IC50 [5]: > 10 µg/mL
- IC50 [6]: > 10 µg/mL

SMILES: Cc1ccc2c(=O)c3cccc(CC(=O)N/N=C/c4ccc(O)c(O)c4)c3oc2c1C
- IC50 (A549): > 100 µM

SMILES: COc1cccc(/C=N/NC(=O)Cc2cccc3c(=O)c4ccc(C)c(C)c4oc23)c1
- IC50 [7]: > 100 µM
- IC50 [8]: > 100 µM
- IC50 (SiHa): > 100 µM
- IC50 (HeLa): > 100 µM
- IC50 [9]: > 100 µM
- IC50 (A549): 50.7 µM
- IC50 (BeWo): 84.9 µM
- IC50 (MCF7): > 100 µM
- IC50 (Ishikawa): > 100 µM
- IC50 (HL-60): > 100 µM

SMILES: COc1ccc(/C=N/NC(=O)Cc2cccc3c(=O)c4ccc(C)c(C)c4oc23)cc1
- IC50 (SiHa): > 100 µM
- IC50 (HeLa): > 100 µM
- IC50 (A549): > 100 µM
- IC50 (BeWo): > 100 µM
- IC50 (MCF7): > 100 µM
- IC50 (Ishikawa): 91.2 µM
- IC50 (HL-60): > 100 µM

SMILES: Cc1ccc2c(=O)c3cccc(CC(=O)N/N=C/c4cc(Cl)ccc4O)c3oc2c1C
- IC50 [7]: > 100 µM
- IC50 [8]: > 100 µM
- IC50 (SiHa): > 100 µM
- IC50 (HeLa): 36.2 µM
- IC50 [5]: > 10 µg/mL
- IC50 [6]: > 10 µg/mL
- IC50 (HUVEC [3]): > 20 µM
- IC50 [9]: > 100 µM
- IC50 (A549): 11.5 µM
- IC50 (BeWo): 76.4 µM
- IC50 (MCF7): > 100 µM
- IC50 (Ishikawa): 68.4 µM
- IC50 (HL-60): 20.8 µM

SMILES: Cc1ccc2c(=O)c3cccc(CC(=O)O)c3oc2c1C [VADIMEZAN]
- IC50 [7]: > 100 µM
- IC50 [8]: > 100 µM
- IC50 (SiHa): > 100 µM
- IC50 (HeLa): > 100 µM
- IC50 (HUVEC [3]): > 20 µM
- IC50 [9]: > 100 µM
- IC50 (A549): > 100 µM
- IC50 (BeWo): > 100 µM
- IC50 (MCF7): > 100 µM
- IC50 (Ishikawa): > 100 µM
- inhibition in vivo at 30 mg/kg (CCRF S-180 [10]): 76.2%
- IC50 (HL-60): > 100 µM

SMILES: CCCNC(=O)Cc1cccc2c(=O)c3ccc(C)c(C)c3oc12
- IC50 [7]: > 100 µM
- IC50 [8]: > 100 µM
- IC50 (SiHa): 92 µM
- IC50 (HeLa): > 100 µM
- inhibition in vivo at 200 mg/kg (CCRF S-180 [2]): 25.6%
- IC50 [9]: > 100 µM
- IC50 (A549): 28.9 µM
- IC50 (BeWo): > 100 µM
- Activity (Mus musculus): 10.32%
- IC50 (MCF7): > 100 µM
- IC50 (Ishikawa): > 100 µM
- IC50 (HL-60): > 100 µM

SMILES: Cc1ccc2c(=O)c3cccc(CC(=O)N/N=C/c4ccc(O)cc4)c3oc2c1C
- IC50 (SiHa): > 100 µM
- IC50 (HeLa): > 100 µM
- IC50 (A549): 35.9 µM
- IC50 (BeWo): 73.7 µM
- IC50 (MCF7): > 100 µM
- IC50 (Ishikawa): > 100 µM
- IC50 (HL-60): > 100 µM

SMILES: Cc1ccc2c(=O)c3cccc(CC(=O)Nc4ccc(Cl)c(Cl)c4)c3oc2c1C
- inhibition at 10 µg/mL (HUVEC [1]): 89.7%
- IC50 (SiHa): 96.1 µM
- IC50 (HeLa): 18.7 µM
- inhibition in vivo at 200 mg/kg (CCRF S-180 [2]): 29.6%
- IC50 (HUVEC [3]): 6.4 µM
- Activity (HUVEC [3]): Dose-dependent effect
- IC50 (A549): 92 µM
- IC50 (BeWo): > 100 µM
- Activity (Mus musculus): 12.87%
- IC50 (MCF7): > 100 µM
- inhibition at 2.5 µg/mL (HUVEC [4]): 67.6%
- IC50 (Ishikawa): > 100 µM
- Activity (HUVEC [11]): Active
- IC50 (HL-60): 42.4 µM

SMILES: CCCCCC(=O)NNC(=O)Cc1cccc2c(=O)c3ccc(C)c(C)c3oc12
- IC50 [5]: > 10 µg/mL
- IC50 [6]: > 10 µg/mL

SMILES: Cc1ccc2c(=O)c3cccc(CC(=O)Nc4ccc(F)c(Cl)c4)c3oc2c1C
- IC50 (SiHa): 32.4 µM
- IC50 (HeLa): 94.2 µM
- IC50 (A549): 25.8 µM
- IC50 (BeWo): > 100 µM
- IC50 (MCF7): > 100 µM
- IC50 (Ishikawa): > 100 µM
- IC50 (HL-60): 76.1 µM

SMILES: COc1c(O)ccc(/C=N/NC(=O)Cc2cccc3c(=O)c4ccc(C)c(C)c4oc23)c1[N+](=O)[O-]
- IC50 (A549): > 100 µM

SMILES: COc1ccc(/C=C\c2cc(OC)c(OC)c(OC)c2)cc1O [COMBRETASTATIN A4]
- IC50 (SiHa): > 100 µM
- IC50 (HeLa): 14.8 µM
- IC50 (BeWo): 12.7 µM
- IC50 (MCF7): 25.5 µM
- IC50 (Ishikawa): 20.1 µM
- IC50 (HL-60): < 0.03 µM

SMILES: CC(C)=CCC(=O)NNC(=O)Cc1cccc2c(=O)c3ccc(C)c(C)c3oc12
- IC50 [5]: > 10 µg/mL
- IC50 [6]: > 10 µg/mL

SMILES: Cc1ccc2c(=O)c3cccc(CC(=O)N/N=C/c4ccc5c(c4)OCO5)c3oc2c1C
- IC50 [7]: > 100 µM
- IC50 [8]: > 100 µM
- IC50 (SiHa): > 100 µM
- IC50 (HeLa): > 100 µM
- IC50 [9]: > 100 µM
- IC50 (A549): 86.8 µM
- IC50 (BeWo): > 100 µM
- IC50 (MCF7): > 100 µM
- IC50 (Ishikawa): > 100 µM
- IC50 (HL-60): > 100 µM
